# Data: patent publication US20240335548A1, “MACROMOLECULES” (Starpharma Pty Ltd, priority 2011, published 2024)
# Experiments:
# HT29 (Colon) = assay: Cell growth inhibition SRB assay; type: cell-based; conditions: Homo sapiens, HT-29; HT29; 72 hours; equivalent drug loading; average of duplicate
# Experimental: (§1) All solutions were prepared in saline (except docetaxel which was made in ethanol). All solutions were stored at −20° C. All values were based on the equivalent drug loading.
# H460 (Lung) = assay: Cell growth inhibition SRB assay; type: cell-based; conditions: Homo sapiens, NCI-H460; H460; 72 hours; equivalent drug loading; average of duplicate
# Experimental: as §1
# MCAS (Ovarian) = assay: Cell growth inhibition SRB assay; type: cell-based; conditions: MCAS; 72 hours; equivalent drug loading; average of duplicate
# Experimental: as §1
# ES2 (Ovarian) = assay: Cell growth inhibition SRB assay; type: cell-based; conditions: ES2; 72 hours; equivalent drug loading; average of duplicate
# Experimental: as §1
# DU145 (Prostate) = assay: Cell growth inhibition SRB assay; type: cell-based; conditions: Homo sapiens, DU-145; DU145; 72 hours; equivalent drug loading; average of duplicate
# Experimental: as §1
# MDA-MB-231 (Breast) = assay: Cell growth inhibition SRB assay; type: cell-based; conditions: Homo sapiens; MDA-MB-231; 72 hours; equivalent drug loading; average of duplicate
# Experimental: as §1
# PC-3 (Prostate) = assay: Cell growth inhibition SRB assay; type: cell-based; conditions: PC-3; 72 hours; equivalent drug loading; average of duplicate
# Experimental: as §1
# A2058 (Melanoma) = assay: Cell growth inhibition SRB assay; type: cell-based; conditions: Homo sapiens; A2058; 72 hours; equivalent drug loading; average of duplicate
# Experimental: as §1
# HCT116 (Colon) = assay: Cell growth inhibition SRB assay; type: cell-based; conditions: Homo sapiens, HCT-116; HCT116; 72 hours; equivalent drug loading; average of duplicate
# Experimental: as §1
# A549 (Lung) = assay: Cell growth inhibition SRB assay; type: cell-based; conditions: Homo sapiens; A549; 72 hours; equivalent drug loading; average of duplicate
# Experimental: as §1
# [1] = day 16, one day after final dose
# Experimental: The 20 mice were randomised into 5 groups of four mice (mean tumour volume ˜90 mm^3). Animals were eye bled in the morning for baseline blood cell counts and then drug dosing commenced later that day (day 1). […] A second eye bleed was performed on day 11 (Table 7 A-C). Mice were killed one day following the final drug dose (day 16).
# [2] = Pharmacokinetic analysis, plasma half-life after IV administration; conditions: rat, plasma, iv
# Experimental: The plasma half-lives of tritium labelled docetaxel and the construct from Experiment 8 (c) (prepared using tritium labelled docetaxel) after IV administration into rats were determined (Kaminskas, L. M., Boyd, B. J., Karellas, P., Krippner, G. Y., Lessene, R., Kelly, B and Porter, C. J. H. “The Impact of Molecular Weight and PEG Chain Length on the Systemic Pharmacokinetics of PEGylated Poly-L-Lysine Dendrimers” Molecular Pharm. 2008, 5, 449-463).
# MDA-MB-231 tumours = assay: Xenograft MDA-MB-231 efficacy study; type: in vivo, female Balb/c nude mice
# [3] = free drug, footnote of Table 1; cited from earlier work
# [4] = Maximum tolerated dose (MTD) study; type: in vivo, female Balb/c mice; conditions: intravenous once weekly for 3 weeks (day 1, 8 and 15)
# Experimental: Groups of female Balb/c mice were administered an intravenous injection of dendrimer (0.1 ml/10 g body weight) or docetaxel (0.05 ml/10 g body weight) once weekly for 3 weeks (day 1, 8 and 15). Mice were weighed daily and watched for signs of toxicity. Animals were monitored for up to 10 days following the final drug dose. Any mice exceeding ethical endpoints (≥20% body weight loss, poor general health) were immediately sacrificed and observations were noted. […] More than twice the dose of docetaxel could be safely administered using drug dendrimer construct compared to docetaxel alone.
# [5] = system: MDA-MB-231 tumour xenografts; assay: MDA-MB-231 mouse xenograft breast cancer model, SPL8996, SPL9005 and SPL9006 study; conditions: cabazitaxel 10 mg/kg, days 1, 8 and 22
# Experimental: (§2) References to amounts dosed in mg/kg for the dendrimeric compounds are to the amounts of cabazitaxel that may theoretically be released by the dendrimers.
# (§3) Each of the dendrimers was pre-weighed in glass vials and stored at 20° C. until use, and dissolved in saline immediately prior to dosing. Cabazitaxel was purchased from a commercial supplier.
# (§4) Female Balb/c nude mice (age 7 weeks) were inoculated subcutaneously on the flank with 3.5×10^6 MDA-MB-231 cells in PBS:Matrigel (1:1). Mice were weighed and tumours measured twice weekly using electronic callipers. Tumour volume (mm^3) was calculated as length (mm)/2×width (mm)^2.
# Mice received a small dish containing a food supplement (mixed with food dust) daily. The experiment was ended on day 150 or earlier if an ethical endpoint was met.
# [6] = system: MDA-MB-231 tumour xenografts; assay: MDA-MB-231 mouse xenograft breast cancer model, SPL9048 study
# Experimental: as §2, §3, §4
# Mice received a small dish containing a food supplement (mixed with food dust) daily. The experiment was ended on day 113 or earlier if an ethical endpoint was met.
# [7] = free cabazitaxel, triphasic PK model; cited from earlier work
# [8] = Toxicity studies in rats (neutropenia, hematology, microscopic changes); conditions: 2.5 mg/kg
# Excerpt: References to amounts dosed in mg/kg for the dendrimeric compound are to the amounts of cabazitaxel that may theoretically be released by the dendrimer.
compound,measurement,setting,value
"CC(=O)O[C@@]12CO[C@@H]1C[C@H](O)[C@@]1(C)C(=O)[C@H](O)C3=C(C)[C@@H](OC(=O)[C@H](O)[C@@H](NC(=O)OC(C)(C)C)c4ccccc4)C[C@@](O)([C@@H](OC(=O)c4ccccc4)[C@H]21)C3(C)C [Docetaxel, reference compound]",GI50,HT29 (Colon),1.5 nM
same,GI50,H460 (Lung),1.5 nM
same,GI50,MCAS (Ovarian),7 nM
same,GI50,ES2 (Ovarian),5 nM
same,GI50,DU145 (Prostate),2.5 nM
same,GI50,MDA-MB-231 (Breast),3.5 nM
same,GI50,PC-3 (Prostate),2.5 nM
same,GI50,A2058 (Melanoma),2 nM
same,GI50,HCT116 (Colon),0.7 nM
same,GI50,A549 (Lung),3.5 nM
same,Mean Tumour Weights (g) (sd),[1],0.048 g
same,half-life,[2],< 1 h
same,Mean tumour Volumne mm^3 (sd),"MDA-MB-231 tumours; Day 1, i.v. day 1, 8, 15, docetaxel 15 mg/kg, Exp 3 (b) 20 mg/kg, Exp 8 (c) […] mg/kg","111.94 (6.41), mm^3"
same,Mean tumour Volumne mm^3 (sd),"MDA-MB-231 tumours; Day 9, same doses","135.57 (18.85), mm^3"
same,Mean tumour Volumne mm^3 (sd),"MDA-MB-231 tumours; Day 19, same doses","49.92 (11.61), mm^3"
same,Mean tumour Volumne mm^3 (sd),"MDA-MB-231 tumours; Day 29, same doses","18.81 (2.09), mm^3"
same,Mean tumour Volumne mm^3 (sd),"MDA-MB-231 tumours; Day 40, same doses","10.75 (1.95), mm^3"
same,Mean tumour Volumne mm^3 (sd),"MDA-MB-231 tumours; Day 61, same doses","95.94 (33.08), mm^3"
same,Mean tumour Volumne mm^3 (sd),"MDA-MB-231 tumours; Day 81, same doses","478.67 (169.27), mm^3"
same,Mean tumour Volumne mm^3 (sd),"MDA-MB-231 tumours; Day 100, same doses","974.83 (302.59), mm^3"
same,solubility of the drug in water,[3],The solubility of docetaxel and in water is 5 μg/mL
same,Tolerated dose,[4],15 mg/kg docetaxel equivalents
"CO[C@H]1C(=O)[C@]2(C)[C@@H](OC)C[C@H]3OC[C@@]3(OC(C)=O)[C@H]2[C@H](OC(=O)c2ccccc2)[C@]2(O)C[C@H](OC(=O)[C@H](O)[C@@H](NC(=O)OC(C)(C)C)c3ccccc3)C(C)=C1C2(C)C [cabazitaxel, reference compound]",resumption of tumour growth by day,[5],≤ 60 days
same,tumours reaching an ethical tumour volume endpoint by day 98,[6]; cabazitaxel 9 mg/kg,9 of 10
same,tumour regrowth evident by day,"[6]; cabazitaxel 9 mg/kg, days 1, 8 and 15",≤ 43 days
same,initial-phase half-life,[7],4 min
same,intermediate-phase half-life,[7],2 h
same,terminal-phase half-life,[7],95 h
BHALys[Lys]32[α-DGA-Cabazitaxel]32†[ε-PEG˜2100]32‡ [SPL9048],antitumour efficacy (tumour response),"[6]; FIG. 1, i.v. days 1, 8 and 15, SPL-9048 9 and 10 mg/kg",complete tumour regression
same,tolerability,"[6]; FIG. 2, body weight",overall well tolerated
same,survival compared with cabazitaxel,[6]; both doses (9 and 10 mg/kg),significantly extended survival beyond that of cabazitaxel
same,toxicity compared to Jevtana®/cabazitaxel,[8],Reduced toxicity
